Data from ChEMBL document CHEMBL5620425, “Design, synthesis and evaluation of novel 1-phenyl-pyrrolo[1,2-b]isoquinolin-3-one derivatives as antagonists for the glycine binding site of the NMDA receptor” (Eur J Med Chem, 2023).
Calls of active or inactive are those of the source. The calls are words filed in the database; no cut-off is given here.

Legend:
[1] = target: T1, Glutamate receptor ionotropic, NMDA 1 (Homo sapiens, UniProt Q05586); assay: Binding affinity to C-terminal GFP-tagged Grin1 NMDA receptor (unknown origin) expressed in HEK293F cells assessed as dissociation constant by MST assay; assay type: cell-based
[2] = system: PC-12; assay: Neuroprotective activity against NMDA-induced cell injury in rat PC12 cells assessed as cell viability incubated for 24 hrs MTT assay; assay type: functional, cell-based; settings: dose 2.5-20 µM
[3] = system: PC-12; assay: Neuroprotective activity against NMDA-induced cell injury in rat PC12 cells assessed as cell viability at 2.5 to 20 uM incubated for 24 hrs MTT assay; assay type: functional, cell-based; settings: dose 2.5-20 µM
[4] = system: PC-12; assay: Neuroprotective activity against NMDA-induced cell injury in rat PC12 cells assessed as cell viability at 20 uM incubated for 24 hrs MTT assay (reference value: 77.1+/- 1.3%); assay type: functional; settings: for viability at 20 µM: Rattus norvegicus; for Activity: 24 h, 20 µM
[5] = system: PC-12; assay: Cytotoxicity against rat PC12 cells assessed as reduction in cell viability at 20 uM incubated for 24 hrs by MTT assay; assay type: functional
[6] = system: PC-12; assay: Neuroprotective activity against NMDA-induced cell injury in rat PC12 cells assessed as cell viability 10 uM incubated for 24 hrs MTT assay; assay type: functional
[7] = system: PC-12; assay: Induction of apoptosis in NMDA-induced rat PC12 cells assessed as early apoptotic cells at 10 uM pretreated with compound for 24 hrs followed by NMDA addition and measured after 6 hrs by Annexin V-FITC/PI staining based flow cytometer analysis (reference value: 23.33%); assay type: functional; settings: time 30 hrs
[8] = system: PC-12; assay: Neuroprotective activity against NMDA-induced cell injury in rat PC12 cells assessed as cell viability 5 uM incubated for 24 hrs MTT assay; assay type: functional
[9] = system: PC-12; assay: Effect on cell morphology in NMDA-induced rat PC12 cells assessed as cell shrank at 10 uM pretreated with NMDA for 6 hrs; assay type: functional, cell-based
[10] = system: PC-12; assay: Induction of apoptosis in NMDA-induced rat PC12 cells assessed as necrotic cells at 10 uM pretreated with compound for 24 hrs followed by NMDA addition and measured after 6 hrs by Annexin V-FITC/PI staining based flow cytometer analysis (reference value: 8%); assay type: functional; settings: time 30 hrs
[11] = target: Glutamate NMDA receptor (Rattus norvegicus) (UniProt P35439+Q00959+Q00960+Q00961+Q62645+Q8VHN2+Q9R1M7); assay: Antagonist activity at NMDA receptor in rat PC12 cells assessed as reduction in NMDA-induced calcium ion influx at 10 uM pretreated with compound for 24 hrs followed by NMDA addition and measured after 6 hrs calcium colorimetric assay; assay type: cell-based; settings: filed as antagonist, time 30.0 hrs
[12] = system: PC-12; assay: Induction of apoptosis in NMDA-induced rat PC12 cells assessed as viable cells at 10 uM pretreated with compound for 24 hrs followed by NMDA addition and measured after 6 hrs by Annexin V-FITC/PI staining based flow cytometer analysis (reference value: 46.58%); assay type: functional; settings: time 30 hrs, read-out: Activity
[13] = system: PC-12; assay: Induction of apoptosis in NMDA-induced rat PC12 cells assessed as late apoptotic cells at 10 uM pretreated with compound for 24 hrs followed by NMDA addition and measured after 6 hrs by Annexin V-FITC/PI staining based flow cytometer analysis (reference value: 22.09 %); assay type: functional; settings: time 30 hrs
[14] = target: T1, Glutamate receptor ionotropic, NMDA 1; assay: Binding affinity to C-terminal GFP-tagged NMDA Grin1.M mutant (unknown origin) expressed in HEK293F cells assessed as dissociation constant by MST assay; assay type: cell-based
[15] = system: PC-12; assay: Cytotoxicity against rat PC12 cells assessed as reduction in cell viability at 5 uM incubated for 24 hrs by MTT assay; assay type: functional, cell-based
[16] = PC-12, 24 h, read-out: Activity

What does the source list for `O=C1C[C@@H](c2cccc(OCc3ccccc3)c2)[C@@H]2Cc3ccccc3CN12`?
Kd [1]: 370 nM; Activity [2]: Dose-Dependent Effect; Activity [3]: Active

What does the source list for `O=C1C[C@H](c2cccc(OCc3ccccc3)c2)[C@H]2Cc3ccccc3CN12`?
Kd [1]: 162 nM; Activity [2]: Dose-Dependent Effect; Activity [3]: Active

How did the viability at 20 µM [4, 16] turn out when `O=C1CC(c2ccc(Cl)cc2)C2Cc3ccccc3CN12` (racemic) was run?
Its viability at 20 µM is 77.1%.

Which results are given for `O=C1CC(c2cccc(O)c2)C2Cc3ccccc3CN12` (racemic)?
Activity [5]: >87.9%; viability at 20 µM [4, 16]: 78.4%

How did the Activity [5] turn out when `O=C1CC(c2ccccc2)C2Cc3ccc(OCc4ccccc4)cc3CN12` (racemic) was run?
Its Activity is over 87.9%.

What about the viability at 20 µM [4, 16] of the same molecule?
Its viability at 20 µM is 68.5%.

Which Kd [1] does the source give for `O=C1CC(c2cccc(OCc3ccccc3)c2)C2Cc3ccccc3CN12` (racemic) here?
Its Kd is 496 nM.

And the Activity [6]?
The Activity was 92.7%.

And the Activity [5]?
Its Activity is over 87.9%.

And the Activity [7]?
The Activity was 15.6%.

What about the Activity [8] of the same molecule?
Its Activity is 93.1%.

And the Activity [9]?
The Activity was “Active”.

And the Activity [10]?
The Activity was 6.94%.

And the Activity [11]?
Its Activity is “Active”.

And the viability at 10 µM [12]?
Its viability at 10 µM is 59.6%.

What about the Activity [13] of the same molecule?
The Activity was 17.88%.

And the Activity [2]?
Its Activity is “Dose-Dependent Effect”.

What about the Kd [14] of the same molecule?
Its Kd is 4250 nM.

And the viability at 20 µM [4, 16]?
The viability at 20 µM was 94.4%.

For `O=C1CC(c2ccccc2)C2Cc3ccc(O)cc3CN12` (racemic), which Activity [5] is on record?
Its Activity is over 87.9%.

And the viability at 20 µM [4, 16]?
The viability at 20 µM was 82.4%.

For `O=C1CC(c2ccccc2)C2Cc3ccc(F)cc3CN12` (racemic), which Activity [5] is on record?
Its Activity is over 87.9%.

And the viability at 20 µM [4, 16]?
Its viability at 20 µM is 82.2%.

How did the Activity [5] turn out when `O=C1CC(c2ccccc2)C2Cc3ccccc3CN12` (racemic; 13a) was run?
The Activity was over 87.9%.

What about the viability at 20 µM [4, 16] of the same molecule?
Its viability at 20 µM is 85.3%.

Which Activity [5] does the source give for `O=C1CC(c2ccc(F)cc2)C2Cc3ccccc3CN12` (racemic; 13d) here?
The Activity was over 87.9%.

What about the viability at 20 µM [4, 16] of the same molecule?
Its viability at 20 µM is 90.6%.

What does the source list for `O=C1CC(c2ccccc2Cl)C2Cc3ccccc3CN12` (racemic; 13e)?
Activity [5]: >87.9%; viability at 20 µM [4, 16]: 77.9%

How did the Activity [5] turn out when `COc1ccc(C2CC(=O)N3Cc4cc(O)ccc4CC23)cc1` (racemic; 13f) was run?
Its Activity is over 87.9%.

What about the viability at 20 µM [4, 16] of the same molecule?
Its viability at 20 µM is 81.7%.

For `O=C1CC(c2ccc(C(F)(F)F)cc2)C2Cc3ccccc3CN12` (racemic; 13g), which viability at 20 µM [4, 16] is on record?
Its viability at 20 µM is 85.6%.

`Cc1ccc(C2CC(=O)N3Cc4ccccc4CC23)cc1` (racemic; 13i) [listing 1 of 2 here] was tested. Which viability at 20 µM [4, 16] did it give?
The viability at 20 µM was 77%.

For `Cc1ccc(C2CC(=O)N3Cc4ccccc4CC23)cc1` (racemic; 13i) [listing 2 of 2 here], which Activity [15] is on record?
The Activity was “Active”.

With `O=C1CC(c2cccc(Oc3ccccc3)c2)C2Cc3ccccc3CN12` (racemic; 13j) [listing 1 of 2 here] as the molecule, how does the Activity [5] read?
Its Activity is 3.4%.

And the viability at 20 µM [4, 16]?
The viability at 20 µM was 77.6%.

`O=C1CC(c2cccc(Oc3ccccc3)c2)C2Cc3ccccc3CN12` (racemic; 13j) [listing 2 of 2 here] was tested. Which Activity [15] did it give?
Its Activity is “Active”.

Which results are given for `O=C1CC(c2ccccc2Oc2ccccc2)C2Cc3ccccc3CN12` (racemic; 13k)?
Activity [5]: 3.4%; viability at 20 µM [4, 16]: 77.5%

`O=C1CC(c2cccc3ccccc23)C2Cc3ccccc3CN12` (racemic; 13l) was tested. Which viability at 20 µM [4, 16] did it give?
Its viability at 20 µM is 74.2%.

`O=C1CC(c2ccccc2)C2Cc3ccccc3CN12` (racemic; 14a) was tested. Which Activity [4] did it give?
Its Activity is 85%.

How did the Activity [4] turn out when `O=C1CC(c2ccc(F)cc2)C2Cc3ccccc3CN12` (racemic; 14e) was run?
Its Activity is 88.1%.

`O=C1CC(c2ccccc2Cl)C2Cc3ccccc3CN12` (racemic; 14f) was tested. Which Activity [4] did it give?
Its Activity is 74.8%.

Which Activity [4] does the source give for `COc1ccc(C2CC(=O)N3Cc4cc(O)ccc4CC23)cc1` (racemic; 14g) here?
Its Activity is 75.2%.

Which Activity [4] does the source give for `O=C1CC(c2ccc(C(F)(F)F)cc2)C2Cc3ccccc3CN12` (racemic; 14h) here?
The Activity was 78.7%.

`Cc1ccc(C2CC(=O)N3Cc4ccccc4CC23)cc1` (racemic; 14j) was tested. Which Activity [4] did it give?
Its Activity is 82.3%.

How did the Activity [4] turn out when `O=C1CC(c2cccc(Oc3ccccc3)c2)C2Cc3ccccc3CN12` (racemic; 14k) [listing 1 of 2 here] was run?
Its Activity is 72.3%.

How did the Activity [15] turn out when `O=C1CC(c2cccc(Oc3ccccc3)c2)C2Cc3ccccc3CN12` (racemic; 14k) [listing 2 of 2 here] was run?
The Activity was “Active”.

How did the Activity [4] turn out when `O=C1CC(c2ccccc2Oc2ccccc2)C2Cc3ccccc3CN12` (racemic; 14l) [listing 1 of 2 here] was run?
Its Activity is 76.3%.

With `O=C1CC(c2ccccc2Oc2ccccc2)C2Cc3ccccc3CN12` (racemic; 14l) [listing 2 of 2 here] as the molecule, how does the Activity [15] read?
The Activity was “Active”.

How did the Activity [4] turn out when `O=C1CC(c2cccc3ccccc23)C2Cc3ccccc3CN12` (racemic; 14m) was run?
Its Activity is 74%.

Which Activity [7] does the source give for `C[C@]12N[C@H](Cc3ccccc31)c1ccccc12` [DIZOCILPINE] here?
The Activity was 10.22%.

And the Activity [9]?
The Activity was “Active”.

And the Activity [10]?
The Activity was 6.81%.

And the Activity [11]?
Its Activity is “Active”.

What about the viability at 10 µM [12] of the same molecule?
Its viability at 10 µM is 70.9%.

What about the Activity [13] of the same molecule?
The Activity was 12.12%.

What about the viability at 20 µM ([4]; PC-12, read-out: Activity) of the same molecule?
The viability at 20 µM was 95.1%.
